# Measured values from US8933103B2, “Pyridone derivatives” (Daiichi Sankyo Company, Limited, priority 2012, dated 2015).
# Molecular target: T1, AXL (fusion protein of amino acids 464-885 of the intracellular domain of human AXL with glutathione transferase) (Homo sapiens, UniProt P30530)
# T1 sequence (P30530 464-885 isoform P30530-2): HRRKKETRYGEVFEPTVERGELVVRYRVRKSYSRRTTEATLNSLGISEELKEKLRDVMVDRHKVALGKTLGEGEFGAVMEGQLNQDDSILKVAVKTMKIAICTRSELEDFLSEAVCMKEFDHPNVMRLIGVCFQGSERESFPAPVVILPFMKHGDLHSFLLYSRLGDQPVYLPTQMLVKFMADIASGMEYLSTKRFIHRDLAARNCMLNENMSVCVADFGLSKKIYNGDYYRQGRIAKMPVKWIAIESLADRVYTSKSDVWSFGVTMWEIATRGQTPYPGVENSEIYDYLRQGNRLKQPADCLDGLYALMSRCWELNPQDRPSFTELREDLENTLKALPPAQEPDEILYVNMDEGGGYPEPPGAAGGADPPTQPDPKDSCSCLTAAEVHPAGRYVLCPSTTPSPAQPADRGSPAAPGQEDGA
# Assay: Cell-Free Axl Kinase Inhibitory Activity
# Description: Next, the test compound was diluted with DMSO, and 1 μl of this diluted solution was added to each well.
# Five microliters of this solution were added to each well to initiate a kinase reaction. The plate was incubated at 28° C. for 1.5 hours, and 40 μl of a termination buffer (100 mM HEPES (pH 7.4), 0.015% Brij-35, 40 mM EDTA, 0.1% Coating Reagent 3) was added to each well to terminate the reaction.
# The substrate peptide and the phosphorylated peptide in the reaction solution were separated and quantified by EZ Reader II (Caliper Life Sciences).
# IC50 was determined from inhibition data for 12 test compound concentrations by nonlinear regression (four-parameter logistic regression) using the following formula.
row,Compound,IC50
1,"CCn1cc(C(=O)Nc2ccc(-c3cc(-c4ccc(OC[C@H]5COCCO5)c(OC)c4)cnc3N)cc2)c(=O)c(-c2ccccc2)c1 [Example 45, N-[4-(2-Amino-5-{4-[(2R)-1,4-dioxan-2-ylmethoxy]-3-methoxyphenyl}pyridin-3-yl)phenyl]-1-ethyl-4-oxo-5-phenyl-1,4-dihydropyridine-3-carboxamide]",1 to 10 nM
2,"COc1ccc(-c2cnc(N)c(-c3ccc(NC(=O)c4cn(CCF)cc(-c5ccc(F)cc5)c4=O)cc3)c2)cc1OC [Example 8, N-{4-[2-Amino-5-(3,4-dimethoxyphenyl)pyridin-3-yl]phenyl}-1-(2-fluoroethyl)-5-(4-fluorophenyl)-4-oxo-1,4-dihydropyridine-3-carboxamide]",1 to 10 nM
3,"COc1ccc(-c2cnc(N)c(-c3ccc(NC(=O)c4cn(Cc5ccccc5)cc(-c5ccc(F)cc5)c4=O)cc3)c2)cc1OC [Example 10, N-{4-[2-Amino-5-(3,4-dimethoxyphenyl)pyridin-3-yl]phenyl}-1-benzyl-5-(4-fluorophenyl)-4-oxo-1,4-dihydropyridine-3-carboxamide]",1 to 10 nM
4,"Cn1cc(-c2cnc(N)c(-c3ccc(NC(=O)c4cn(Cc5ccccc5)cc(-c5ccc(F)cc5)c4=O)cc3)c2)cn1 [Example 51, N-{4-[2-Amino-5-(1-methyl-1H-pyrazol-4-yl)pyridin-3-yl]phenyl}-1-benzyl-5-(4-fluorophenyl)-4-oxo-1,4-dihydropyridine-3-carboxamide]",0.1 to 1 nM
5,"COc1ccc(-c2cnc(N)c(-c3ccc(NC(=O)c4cn(CC(=O)N(C)C)cc(-c5ccc(F)cc5)c4=O)cc3)c2)cc1OC [Example 16, N-{4-[2-Amino-5-(3,4-dimethoxyphenyl)pyridin-3-yl]phenyl}-1-[2-(dimethylamino)-2-oxoethyl]-5-(4-fluorophenyl)-4-oxo-1,4-dihydropyridine-3-carboxamide]",1 to 10 nM
6,"CCn1cc(C(=O)Nc2ccc(-c3cc(-c4cnn(C)c4)cnc3N)cc2)c(=O)c(-c2ccc(F)cc2)c1 [Example 47, N-{4-[2-Amino-5-(1-methyl-1H-pyrazol-4-yl)pyridin-3-yl]phenyl}-1-ethyl-5-(4-fluorophenyl)-4-oxo-1,4-dihydropyridine-3-carboxamide]",1 to 10 nM
7,"Cn1cc(-c2cnc(N)c(-c3ccc(NC(=O)c4cn(CCF)cc(-c5ccc(F)cc5)c4=O)cc3)c2)cn1 [Example 48, N-{4-[2-Amino-5-(1-methyl-1H-pyrazol-4-yl)pyridin-3-yl]phenyl}-1-(2-fluoroethyl)-5-(4-fluorophenyl)-4-oxo-1,4-dihydropyridine-3-carboxamide]",1 to 10 nM
8,"COc1ccc(-c2cnc(N)c(-c3ccc(NC(=O)c4cn(CC(F)(F)F)cc(-c5ccccc5)c4=O)cc3)c2)cc1OC [Example 20, N-{4-[2-Amino-5-(3,4-dimethoxyphenyl)pyridin-3-yl]phenyl}-4-oxo-5-phenyl-1-(2,2,2-trifluoroethyl)-1,4-dihydropyridine-3-carboxamide]",1 to 10 nM
9,"COc1ccc(-c2cnc(N)c(-c3ccc(NC(=O)c4cn(CC(F)(F)OC)cc(-c5ccc(F)cc5)c4=O)cc3)c2)cc1OC [Example 17, N-{4-[2-Amino-5-(3,4-dimethoxyphenyl)pyridin-3-yl]phenyl}-1-(2,2-difluoro-2-methoxyethyl)-5-(4-fluorophenyl)-4-oxo-1,4-dihydropyridine-3-carboxamide]",0.1 to 1 nM
10,"Cn1cc(-c2cnc(N)c(-c3ccc(NC(=O)c4cn(CC(F)(F)F)cc(-c5ccc(F)cc5)c4=O)cc3)c2)cn1 [Example 50, N-{4-[2-Amino-5-(1-methyl-1H-pyrazol-4-yl)pyridin-3-yl]phenyl}-5-(4-fluorophenyl)-4-oxo-1-(2,2,2-trifluoroethyl)-1,4-dihydropyridine-3-carboxamide]",0.1 to 1 nM
11,"CCn1cc(C(=O)Nc2ccc(-c3cc(-c4cnn(C[C@H]5COCCO5)c4)cnc3N)cc2)c(=O)c(-c2ccc(F)cc2)c1 [Example 64, N-[4-(2-Amino-5-{1-[(2S)-1,4-dioxan-2-ylmethyl]-1H-pyrazol-4-yl}pyridin-3-yl)phenyl]-1-ethyl-5-(4-fluorophenyl)-4-oxo-1,4-dihydropyridine-3-carboxamide]",0.1 to 1 nM
12,"COc1cc(-c2cnc(N)c(-c3ccc(NC(=O)c4cn(CC(F)(F)F)cc(-c5ccc(F)cc5)c4=O)cc3)c2)ccc1OC[C@H]1COCCO1 [Example 42, N-[4-(2-Amino-5-{4-[(2R)-1,4-dioxan-2-ylmethoxy]-3-methoxyphenyl}pyridin-3-yl)phenyl]-5-(4-fluorophenyl)-4-oxo-1-(2,2,2-trifluoroethyl)-1,4-dihydropyridine-3-carboxamide]",0.1 to 1 nM

# Further lines, results first:
row,IC50,Compound
1,1 to 10 nM,"COc1cc(-c2cnc(N)c(-c3ccc(NC(=O)c4cn(CCF)cc(-c5ccccc5)c4=O)cc3)c2)ccc1OC[C@H]1COCCO1 [Example 44, N-[4-(2-Amino-5-{4-[(2R)-1,4-dioxan-2-ylmethoxy]-3-methoxyphenyl}pyridin-3-yl)phenyl]-1-(2-fluoroethyl)-4-oxo-5-phenyl-1,4-dihydropyridine-3-carboxamide]"
2,1 to 10 nM,"COc1cc(-c2cnc(N)c(-c3ccc(NC(=O)c4cn(CC(F)(F)F)cc(-c5ccc(F)cc5)c4=O)cc3)c2)ccc1O [Example 37, N-{4-[2-Amino-5-(4-hydroxy-3-methoxyphenyl)pyridin-3-yl]phenyl}-5-(4-fluorophenyl)-4-oxo-1-(2,2,2-trifluoroethyl)-1,4-dihydropyridine-3-carboxamide]"
3,0.1 to 1 nM,"COc1ccc(-c2cnc(N)c(-c3ccc(NC(=O)c4cn(Cc5ccc(F)cc5)cc(C(=O)N5C[C@@H](C)O[C@@H](C)C5)c4=O)cc3)c2)cc1OC [Example 27, N-{4-[2-Amino-5-(3,4-dimethoxyphenyl)pyridin-3-yl]phenyl}-5-{[(2R,6S)-2,6-dimethylmorpholin-4-yl]carbonyl}-1-(4-fluorobenzyl)-4-oxo-1,4-dihydropyridine-3-carboxamide]"
4,1 to 10 nM,"Nc1ncc(-c2cnn(C[C@H]3COCCO3)c2)cc1-c1ccc(NC(=O)c2cn(CCF)cc(-c3ccc(F)cc3)c2=O)cc1 [Example 65, N-[4-(2-Amino-5-{1-[(2S)-1,4-dioxan-2-ylmethyl]-1H-pyrazol-4-yl}pyridin-3-yl)phenyl]-1-(2-fluoroethyl)-5-(4-fluorophenyl)-4-oxo-1,4-dihydropyridine-3-carboxamide]"
5,0.1 to 1 nM,"COc1cc(-c2cnc(N)c(-c3ccc(NC(=O)c4cn(CCF)cc(-c5ccccc5)c4=O)cc3)c2)ccc1OCCN1CCCC1 [Example 40, N-(4-{2-Amino-5-[3-methoxy-4-(2-pyrrolidin-1-ylethoxy)phenyl]pyridin-3-yl}phenyl)-1-(2-fluoroethyl)-4-oxo-5-phenyl-1,4-dihydropyridine-3-carboxamide]"
6,0.1 to 1 nM,"COc1ccnc(N)c1-c1ccc(NC(=O)c2cn(CC(F)(F)F)cc(-c3ccc(F)cc3)c2=O)cc1F [Example 85, N-[4-(2-Amino-4-methoxypyridin-3-yl)-3-fluorophenyl]-5-(4-fluorophenyl)-4-oxo-1-(2,2,2-trifluoroethyl)-1,4-dihydropyridine-3-carboxamide]"
7,0.1 to 1 nM,"Nc1ncc(-c2cnn(C3CCNCC3)c2)cc1-c1ccc(NC(=O)c2cn(CCF)cc(-c3ccc(F)cc3)c2=O)cc1 [Example 62, N-{4-[2-Amino-5-(1-piperidin-4-yl-1H-pyrazol-4-yl)pyridin-3-yl]phenyl}-1-(2-fluoroethyl)-5-(4-fluorophenyl)-4-oxo-1,4-dihydropyridine-3-carboxamide]"
8,1 to 10 nM,"COc1ccc(-c2cnc(N)c(-c3ccc(NC(=O)c4cn(CCF)cc(-c5ccccc5)c4=O)cc3)c2)cc1OC [Example 19, N-{4-[2-Amino-5-(3,4-dimethoxyphenyl)pyridin-3-yl]phenyl}-1-(2-fluoroethyl)-4-oxo-5-phenyl-1,4-dihydropyridine-3-carboxamide]"
9,1 to 10 nM,"COc1ccc(-c2cnc(N)c(-c3ccc(NC(=O)c4cn(C(C)C)cc(-c5ccc(F)cc5)c4=O)cc3)c2)cc1OC [Example 4, N-{4-[2-Amino-5-(3,4-dimethoxyphenyl)pyridin-3-yl]phenyl}-5-(4-fluorophenyl)-4-oxo-1-(propan-2-yl)-1,4-dihydropyridine-3-carboxamide]"
10,1 to 10 nM,"Cc1cc(-c2cnc(N)c(-c3ccc(NC(=O)c4cn(CCF)cc(-c5ccc(F)cc5)c4=O)cc3)c2)ccn1 [Example 78, N-[4-(6-Amino-2′-methyl-3,4′-bipyridin-5-yl)phenyl]-1-(2-fluoroethyl)-5-(4-fluorophenyl)-4-oxo-1,4-dihydropyridine-3-carboxamide]"
11,0.1 to 1 nM,"COCCOc1ccc(-c2cnc(N)c(-c3ccc(NC(=O)c4cn(CC(F)(F)F)cc(-c5ccc(F)cc5)c4=O)cc3)c2)cc1OC [Example 38, N-(4-{2-Amino-5-[3-methoxy-4-(2-methoxyethoxy)phenyl]pyridin-3-yl}phenyl)-5-(4-fluorophenyl)-4-oxo-1-(2,2,2-trifluoroethyl)-1,4-dihydropyridine-3-carboxamide]"
12,0.1 to 1 nM,"COc1ccc(-c2cnc(N)c(-c3ccc(NC(=O)c4cn(Cc5ccc(F)cc5)cc(-c5nnc(C)o5)c4=O)cc3)c2)cc1OC [Example 28, N-{4-[2-Amino-5-(3,4-dimethoxyphenyl)pyridin-3-yl]phenyl}-1-(4-fluorobenzyl)-5-(5-methyl-1,3,4-oxadiazol-2-yl)-4-oxo-1,4-dihydropyridine-3-carboxamide]"
13,1 to 10 nM,"Cn1cc(-c2cnc(N)c(-c3ccc(NC(=O)c4cn(CCF)cc(-c5ccccc5)c4=O)cc3F)c2)cn1 [Example 55, N-{4-[2-Amino-5-(1-methyl-1H-pyrazol-4-yl)pyridin-3-yl]-3-fluorophenyl}-1-(2-fluoroethyl)-4-oxo-5-phenyl-1,4-dihydropyridine-3-carboxamide]"
